Like-named read-outs stand apart in the source and are kept apart here.

In assay [1] the target is T1, estrogen receptor alpha (ESR1) (Homo sapiens, UniProt P03372).
T1 construct: endogenous in cells; host or cells: MCF7 breast cancer cells
T1 sequence (P03372 1-595): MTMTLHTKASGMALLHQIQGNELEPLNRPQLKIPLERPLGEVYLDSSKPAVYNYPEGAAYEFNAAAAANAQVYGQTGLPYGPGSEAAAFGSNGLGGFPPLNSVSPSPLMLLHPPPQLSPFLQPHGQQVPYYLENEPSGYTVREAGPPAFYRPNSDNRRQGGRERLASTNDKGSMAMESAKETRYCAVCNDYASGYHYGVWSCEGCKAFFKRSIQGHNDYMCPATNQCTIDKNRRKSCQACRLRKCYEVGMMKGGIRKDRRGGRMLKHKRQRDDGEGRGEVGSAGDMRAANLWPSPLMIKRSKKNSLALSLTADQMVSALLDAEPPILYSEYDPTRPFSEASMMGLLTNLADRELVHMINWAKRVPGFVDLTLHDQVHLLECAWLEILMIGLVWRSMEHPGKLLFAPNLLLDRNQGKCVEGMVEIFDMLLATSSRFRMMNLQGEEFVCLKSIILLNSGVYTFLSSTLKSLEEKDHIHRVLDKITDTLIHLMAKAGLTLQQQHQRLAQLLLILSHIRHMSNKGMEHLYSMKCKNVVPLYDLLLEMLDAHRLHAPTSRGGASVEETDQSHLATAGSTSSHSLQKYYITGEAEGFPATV
The assay is described as follows: Breast Cancer Cell ERa High Content Fluorescence Imaging Degradation Assay (Example 901). It is filed as cell-based. The following applies: Table 1a; MCF7 breast cancer cells, 4 hours; plateau of the maximal effect; DMSO and Fulvestrant define 0% and 100% changes in ESR1. A digest of the protocol: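 MCF7 cells in phenol red-free RPMI with 10% charcoal-stripped FBS, exposed to compound at 0.05–835 nM (10-point, 1.8×, duplicate; 0.84% DMSO) for 4 h at 37 °C. Fixed cells immunostained for ESR1 (F10 mAb, Alexa 488) with Hoechst nuclear mask; nuclear ESR1 intensity imaged per cell. DMSO and 5 nM fulvestrant set 0%/100%; EC50 and Sinf by robust fit.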

The next assay deals with MCF7 cells. The assay is described as follows: In vitro cell proliferation assays (Examples 902 and 903), MCF7. It is filed as cell-based. The following applies: read-out: ER-alpha MCF7 HCS (EC50).

As a reminder, the EC50 is the concentration at which the effect is half-maximal. As for `C[C@@H]1Cc2c([nH]c3ccc(F)cc23)[C@@H](c2c(F)cc(C(O)C3CN(CCCF)C3)cc2F)N1CC(C)(F)CO` (stereo partly drawn) [Compound 113, 3-((1R,3R)-1-(2,6-difluoro-4-((1-(3-fluoropropyl)azetidin-3-yl)(hydroxy)methyl)phenyl)-6-fluoro-3-methyl-1,3,4,9-tetrahydro-2H-pyrido[3,4-b]indol-2-yl)-2-fluoro-2-methylpropan-1-ol], the “ER-alpha MCF7 HCS (S inf)” value in assay [1] is given as −91.41%. Also, in the assay on MCF7 cells (Table 1a), the EC50 turned out to be 0.884 nM.
With `C[C@@H]1Cc2c([nH]c3ccccc23)[C@@H](c2ccc(C(O)C3CN(CCCF)C3)cc2F)N1CC(F)(F)CO` (stereo partly drawn) [Compound 116, 2,2-difluoro-3-((1R,3R)-1-(2-fluoro-4-((1-(3-fluoropropyl)azetidin-3-yl)(hydroxy)methyl)phenyl)-3-methyl-1,3,4,9-tetrahydro-2H-pyrido[3,4-b]indol-2-yl)propan-1-ol], the “ER-alpha MCF7 HCS (S inf)” value in assay [1] is −98.7%. In the assay on MCF7 cells (Homo sapiens, MCF7, Table 1a), the EC50 was found to be 0.031 nM.
For `C[C@@H]1Cc2c([nH]c3ccccc23)[C@@H](c2ccc(C(O)C3CN(CCCF)C3)cc2)N1CC(F)(F)CO` (stereo partly drawn) [Compound 117, 2,2-difluoro-3-((1R,3R)-1-(4-((1-(3-fluoropropyl)azetidin-3-yl)(hydroxy)methyl)phenyl)-3-methyl-1,3,4,9-tetrahydro-2H-pyrido[3,4-b]indol-2-yl)propan-1-ol], in that order: −100% and 0.066 nM.
As to `C[C@@H]1Cc2c([nH]c3ccc(F)cc23)[C@@H](c2c(F)cc(C(O)C3CN(CCCF)C3)cc2F)N1CC(C)(F)CO` (stereo partly drawn) [Compound 118, 3-((1R,3R)-1-(2,6-difluoro-4-((1-(3-fluoropropyl)azetidin-3-yl)(hydroxy)methyl)phenyl)-6-fluoro-3-methyl-1,3,4,9-tetrahydro-2H-pyrido[3,4-b]indol-2-yl)-2-fluoro-2-methylpropan-1-ol], in assay [1], the “ER-alpha MCF7 HCS (S inf)” value was −96.56%. Also, in the assay with MCF7 cells (Table 1a), the EC50 is 0.022 nM.
Take `C[C@@H]1Cc2c([nH]c3ccccc23)[C@@H](c2c(F)cc([C@H](O)C3CN(CCCF)C3)cc2F)N1CC(F)(F)F` [Compound 119, (R)-(3,5-difluoro-4-((1R,3R)-3-methyl-2-(2,2,2-trifluoroethyl)-2,3,4,9-tetrahydro-1H-pyrido[3,4-b]indol-1-yl)phenyl)(1-(3-fluoropropyl)azetidin-3-yl)methanol]: in assay [1], the “ER-alpha MCF7 HCS (S inf)” value is given as −98.93%. Besides, the concentration for a half-maximal effect (EC50) with MCF7 cells (Homo sapiens, MCF7, Table 1a) came out at 0.085 nM.
On the same counts, the results for `C[C@@H]1Cc2c([nH]c3ccccc23)[C@@H](c2c(F)cc([C@@H](O)C3CN(CCCF)C3)cc2F)N1CC(F)(F)F` [Compound 120, (S)-(3,5-difluoro-4-((1R,3R)-3-methyl-2-(2,2,2-trifluoroethyl)-2,3,4,9-tetrahydro-1H-pyrido[3,4-b]indol-1-yl)phenyl)(1-(3-fluoropropyl)azetidin-3-yl)methanol] are −99.17% and 0.037 nM.
For `C[C@@H]1Cc2c([nH]c3ccccc23)[C@@H](c2ccc([C@H](F)C3CN(CCCF)C3)cc2)N1CC(F)(F)CO` [Compound 123], in that order: −98.38% and 0.041 nM.
For `C[C@@H]1Cc2c([nH]c3ccccc23)[C@@H](c2ccc([C@@H](F)C3CN(CCCF)C3)cc2)N1CC(F)(F)CO` [Compound 124, 2,2-difluoro-3-((1R,3R)-1-(4-((S)-fluoro(1-(3-fluoropropyl)azetidin-3-yl)methyl)phenyl)-3-methyl-1,3,4,9-tetrahydro-2H-pyrido[3,4-b]indol-2-yl)propan-1-ol], in assay [1], the “ER-alpha MCF7 HCS (S inf)” value is −96.62%. Besides, in the assay with MCF7 cells (Homo sapiens, MCF7, Table 1a), the EC50 was 0.022 nM.
For the compound `C[C@@H]1Cc2c([nH]c3ccccc23)[C@@H](c2ccc([C@H](F)C3CN(CCCF)C3)cc2F)N1CC(F)(F)CO` [Compound 125, 2,2-difluoro-3-((1R,3R)-1-(2-fluoro-4-((R)-fluoro(1-(3-fluoropropyl)azetidin-3-yl)methyl)phenyl)-3-methyl-1,3,4,9-tetrahydro-2H-pyrido[3,4-b]indol-2-yl)propan-1-ol], the “ER-alpha MCF7 HCS (S inf)” value in assay [1] was −98.52%. In the assay with MCF7 cells (Homo sapiens, MCF7, Table 1a), the EC50 turned out to be 0.019 nM.
On the same counts, the results for `C[C@@H]1Cc2c([nH]c3ccccc23)[C@@H](c2ccc([C@@H](F)C3CN(CCCF)C3)cc2F)N1CC(F)(F)CO` [Compound 126, 2,2-difluoro-3-((1R,3R)-1-(2-fluoro-4-((S)-fluoro(1-(3-fluoropropyl)azetidin-3-yl)methyl)phenyl)-3-methyl-1,3,4,9-tetrahydro-2H-pyrido[3,4-b]indol-2-yl)propan-1-ol] are −95.71% and 0.021 nM.
For `C[C@@H]1Cc2c([nH]c3ccccc23)[C@@H](c2ccc([C@H](O)C3CN(CCCF)C3)cc2)N1CC(F)(F)CO` [Compound 127, 2,2-difluoro-3-((1R,3R)-1-(4-((R)-(1-(3-fluoropropyl)azetidin-3-yl)(hydroxy)methyl)phenyl)-3-methyl-1,3,4,9-tetrahydro-2H-pyrido[3,4-b]indol-2-yl)propan-1-ol], in that order: −97.29% and 0.071 nM.
On the same counts, the results for `C[C@@H]1Cc2c([nH]c3ccccc23)[C@@H](c2ccc([C@@H](O)C3CN(CCCF)C3)cc2)N1CC(F)(F)CO` [Compound 128, 2,2-difluoro-3-((1R,3R)-1-(4-((S)-(1-(3-fluoropropyl)azetidin-3-yl)(hydroxy)methyl)phenyl)-3-methyl-1,3,4,9-tetrahydro-2H-pyrido[3,4-b]indol-2-yl)propan-1-ol] are −97.31% and 0.088 nM.
Turning to `C[C@@H]1Cc2c([nH]c3ccccc23)[C@@H](c2ccc([C@H](O)C3CN(CCCF)C3)cc2F)N1CC(F)(F)CO` [Compound 129, 2,2-difluoro-3-((1R,3R)-1-(2-fluoro-4-((R)-(1-(3-fluoropropyl)azetidin-3-yl)(hydroxy)methyl)phenyl)-3-methyl-1,3,4,9-tetrahydro-2H-pyrido[3,4-b]indol-2-yl)propan-1-ol], the “ER-alpha MCF7 HCS (S inf)” value in assay [1] is given as −98.76%. In the assay with MCF7 cells (Homo sapiens, MCF7, Table 1a), the EC50 amounted to 0.034 nM.
For `C[C@@H]1Cc2c([nH]c3ccccc23)[C@@H](c2ccc([C@@H](O)C3CN(CCCF)C3)cc2F)N1CC(F)(F)CO` [Compound 130, 2,2-difluoro-3-((1R,3R)-1-(2-fluoro-4-((S)-(1-(3-fluoropropyl)azetidin-3-yl)(hydroxy)methyl)phenyl)-3-methyl-1,3,4,9-tetrahydro-2H-pyrido[3,4-b]indol-2-yl)propan-1-ol], in that order: −96.45% and 0.037 nM.
For `C[C@@H]1Cc2c([nH]c3cc(F)ccc23)[C@@H](c2c(F)cc([C@@H](O)C3CN(CCCF)C3)cc2F)N1CC(F)(F)CO` [Compound 141, 3-((1R,3R)-1-(2,6-difluoro-4-((S)-(1-(3-fluoropropyl)azetidin-3-yl)(hydroxy)methyl)phenyl)-7-fluoro-3-methyl-1,3,4,9-tetrahydro-2H-pyrido[3,4-b]indol-2-yl)-2,2-difluoropropan-1-ol], in that order: −100% and 1.3 nM.

For the origin of these results see patent US20170362228A1, “TETRAHYDRO-PYRIDO[3,4-b]INDOLE ESTROGEN RECEPTOR MODULATORS AND USES THEREOF” (Genentech, Inc., priority 2016, published 2017).
